The values that follow come from US7087616B2, “Pyrazolyl pyrimidines” (Bayer CropScience AG, priority 2001, dated 2006).

Tested on in one data set: not listed separately
As to the kind of experiment: logP determination by HPLC (EEC Directive 79/831 Annex V.A8). The data set is classed as physicochemical. The following applies: pH 2.3; HPLC reversed-phase column (C 18), 43° C.; read-out: log P(pH 2.3). The procedure:
The stated logp values were determined in accordance with EEC Directive 79/831 Annex V.A8 by HPLC (High Performance Liquid Chromatography) using a reversed-phase column (C 18). Temperature: 43° C.
Mobile phases for the determination in the acidic range: 0.1% aqueous phosphoric acid, acetonitrile; linear gradient from 10% acetonitrile to 90% acetonitrile.
Calibration was carried out using unbranched alkane-2-ones (having 3 to 16 carbon atoms) with known logp values (determination of the logp values by the retention times using linear interpolation between two successive alkanones).
On to `CN(CC(=O)OCC(F)(F)C(F)(F)C(F)(F)C(F)F)c1nccc(-n2cccn2)n1` [Example 73], for which the chromatographic logP was 3.46.

As for `CN(CC(=O)OCC(F)(F)C(F)(F)C(F)(F)F)c1nccc(-n2cc(Cl)cn2)n1` [Example 83], the chromatographic logP stood at 4.46.

Consider `O=C(CSc1nccc(-n2cc(Br)cn2)n1)OCC(F)(F)C(F)(F)C(F)(F)F` [Example 90], for which the chromatographic logP came to 4.34.

On to `COc1cnn(-c2ccnc(SCC(=O)OCC(F)(F)C(F)(F)C(F)(F)F)n2)c1` [Example 91], for which the chromatographic logP worked out at 3.78.

Consider `COc1cnn(-c2ccnc(SCC(=O)OC(C)C(F)(F)C(F)(F)C(F)(F)F)n2)c1` (stereo not drawn) [Example 93], for which the chromatographic logP worked out at 4.14.

On to `CC(OC(=O)CSc1nccc(-n2cc(Br)cn2)n1)C(F)(F)C(F)(F)C(F)(F)F` (stereo not drawn) [Example 94], for which the chromatographic logP was 4.73.

Staying with this data set, now noted: reversed-phase HPLC column (C 18); pH 2.3; HPLC reversed-phase column (C 18), 43° C.; read-out: log P(pH 2.3).
Take `C#Cc1cnn(-c2ccnc(SCC(=O)OCC)n2)c1` [Example 74]: the chromatographic logP was found to be 2.71.

Take `O=C(O)CSc1nccc(-n2cc(Br)cn2)n1` [Example 76]: the chromatographic logP was found to be 1.91.

`O=C(O)CSc1nccc(-n2cc(Cl)cn2)n1` [Example 82]: the chromatographic logP was 1.81.

Consider `COc1cnn(-c2ccnc(SCC(=O)O)n2)c1` [Example 84], for which the chromatographic logP amounted to 1.45.

With `CC(OC(=O)CSc1nccc(-n2cc(Br)cn2)n1)C(F)(F)C(F)(F)F` (stereo not drawn) [Example 92], the chromatographic logP stood at 4.3.

Turning to `CCOC(=O)CSc1nccc(-n2cc(C(C)=O)cn2)n1` [Example 95], the chromatographic logP worked out at 2.07.

As to `C=Cc1cnn(-c2ccnc(SCC(=O)OCC)n2)c1` [Example 96], the chromatographic logP worked out at 2.87.

On to `CCOC(=O)CSc1nccc(-n2cc(N)cn2)n1` [Example 99], for which the chromatographic logP is 0.94.

`COc1cnn(-c2ccnc(SCC(=O)OCC(F)(F)F)n2)c1` [Example 101]: the chromatographic logP amounted to 2.87.

Consider `CCOC(=O)CSc1nccc(-n2cc(SC(F)(F)C(F)F)cn2)n1` [Example 102], for which the chromatographic logP was found to be 3.45.

The next data set has as its system peach aphids (Myzus persicae). As to the kind of experiment: Myzus Test/Cabbage. The data set is classed as in vivo. The following applies: 144 h, 500 ppm, Table B 1, cabbage leaves dipped, read-out: Kill rate in % after 6d. How it is done:
To produce a suitable preparation of active compound, 1 part by weight of active compound is mixed with the stated amounts of solvent and emulsifier, and the concentrate is diluted with emulsifier-containing water to the desired concentration.
Cabbage leaves (Brassica oleracea) which are heavily infested by peach aphids (Myzus persicae) are treated by being dipped into the preparation of active compound of the desired concentration.
After the desired period of time, the kill in % is determined. 100% means that all aphids have been killed; 0% means that none of the aphids have been killed.
Amounts of solvent, amounts of emulsifier, active compounds, active compound concentrations and test results are shown in the Tables below.
For the compound `CCOC(=O)CSc1nccc(-n2cc(Br)cn2)n1`, the pest or weed control at 500 ppm came to 100%.

As to `CCOC(=O)CSc1nccc(-n2cccn2)n1` [drawing 174], the pest or weed control at 500 ppm amounted to 95%.

The data set is the same for the next values; noted with them: 144 h, 500 ppm, Table B 2, cabbage leaves dipped, read-out: Kill rate in % after 6d.
Regarding `CCOC(=O)CSc1nccc(-n2cc(-c3ccc(Cl)cc3)cn2)n1`, the pest or weed control at 500 ppm turned out to be 100%.

Take `O=C(CSc1nccc(-n2cccn2)n1)OCC(F)(F)F`: the pest or weed control at 500 ppm stood at 100%.

As for `O=C(CSc1nccc(-n2cccn2)n1)OCC(F)(F)C(F)F`, the pest or weed control at 500 ppm stood at 100%.

For the compound `O=C(CSc1nccc(-n2cccn2)n1)OC(C(F)(F)F)C(F)(F)F`, the pest or weed control at 500 ppm turned out to be 100%.

Regarding `O=C(CSc1nccc(-n2cccn2)n1)OCC(Cl)Cl`, the pest or weed control at 500 ppm was 100%.

Consider `O=C(CSc1nccc(-n2cccn2)n1)OCC(F)(F)C(F)(F)F`, for which the pest or weed control at 500 ppm was 100%.

Turning to `COc1cnn(-c2ccnc(N(C)CC(=O)OCC(F)(F)F)n2)c1`, the pest or weed control at 500 ppm was found to be 100%.

With `CCOC(=O)CSc1nccc(-n2cc(-c3ccccc3)cn2)n1` [drawing 177], the pest or weed control at 500 ppm worked out at 100%.

For `O=C(O)CSc1nccc(-n2cc(Br)cn2)n1` [drawing 186], the pest or weed control at 500 ppm came to 100%.

As for `CCOC(=O)CSc1nccc(-n2cc(C(F)(F)F)cn2)n1` [drawing 188], the pest or weed control at 500 ppm is 100%.

Turning to `COc1cnn(-c2ccnc(SCC(=O)O)n2)c1` [drawing 190], the pest or weed control at 500 ppm amounted to 100%.

The same data set, now with this note: 144 h, read-out: Kill rate in % after 6d.
As for `O=C(CSc1nccc(-n2cccn2)n1)OCC(F)(F)C(F)(F)C(F)(F)F`, the pest or weed control at 500 ppm was determined as 100%.

Consider `CN(CC(=O)OCC(F)(F)C(F)(F)C(F)(F)F)c1nccc(-n2cccn2)n1`, for which the pest or weed control at 500 ppm turned out to be 100%.

On to `COc1cnn(-c2ccnc(N(C)CC(=O)OCC(F)(F)C(F)(F)C(F)(F)F)n2)c1`, for which the pest or weed control at 500 ppm is 100%.

In the case of `CN(CC(=O)OCC(F)(F)C(F)(F)C(F)(F)F)c1nccc(-n2cc(Cl)cn2)n1` [drawing 189], the pest or weed control at 500 ppm is 100%.
